Assay results: ChEMBL document CHEMBL5357036, “Latest developments in coumarin-based anticancer agents: mechanism of action and structure-activity relationship studies” (RSC Med Chem, 2024)
Values after ≈ are worked out from the molar mass of the structure shown. Values belong to the compound of their own block, whether it stands above or below them.

Legend:
[1] = target: ALK tyrosine kinase receptor (Homo sapiens, UniProt Q9UM73, L1196M); assay: Inhibition of ALK L1196M mutant (unknown origin)
[2] = Cytotoxicity against green monkey COS-7 cells; type: toxicity, cell-based; conditions: green monkey (Chlorocebus aethiops)
SW480 = assay: Cytotoxicity against human SW480 cells assessed as reduction in cell viability incubated for 48 hrs by MTT; type: functional, cell-based; conditions: SW480, 48 h
MCF7 [3] = assay: Antiproliferative activity against human MCF7 cells assessed as reduction in cell proliferation by CCK-8 assay; type: functional, cell-based
MCF7-DOX = assay: Antiproliferative activity against human MCF7-DOX cells assessed as reduction in cell viability by MTT assay; type: functional, cell-based
HepG2 [4] = assay: Antiproliferative activity against human HepG2 cells assessed as reduction in cell viability by MTT assay; type: functional, cell-based
A549 = assay: Antiproliferative activity against human A549 cells assessed as reduction in cell viability by MTT assay; type: functional, cell-based
HeLa = assay: Antiproliferative activity against human HeLa cells assessed as reduction in cell viability by MTT assay; type: functional, cell-based
DU-145 = assay: Antiproliferative activity against human DU-145 cells assessed as reduction in cell viability by MTT assay; type: functional, cell-based
SK-OV-3 = assay: Antiproliferative activity against human SK-OV-3 cells assessed as reduction in cell viability by MTT assay; type: functional, cell-based
MCF7 [5] = assay: Antiproliferative activity against human MCF7 cells assessed as reduction in cell viability by MTT assay; type: functional, cell-based
MCF7 [6] = assay: cells; conditions: Homo sapiens, MCF7, 24 h
Description: Cytotoxicity against human MCF7 cells assessed as reduction in cell viability incubated for 24 hrs by MTT assay

4T1 = assay: Cytotoxicity against mouse 4T1 cells assessed as inhibition of cell proliferation incubated for 72 hrs by MTT assay; type: functional, cell-based; conditions: 4T1, 72 h
Caco-2 = assay: Cytotoxicity against human Caco-2 cells assessed as reduction in cell viability incubated for 72 hrs by MTT assay; type: functional, cell-based; conditions: Caco-2, 72 h
MCF7 [7] = assay: Cytotoxicity against human MCF7 cells assessed as cell growth inhibition incubated for 48 hrs by SRB assay; type: functional, cell-based; conditions: MCF7, 48 h
BT-20 = assay: Anticancer activity against human BT-20 cells assessed as cell growth inhibition; type: functional, cell-based
HOS = assay: Cytotoxicity against human HOS cells assessed as reduction in cell growth incubated for 5 days by MTT assay; type: functional, cell-based; conditions: 120 h
MCF7 [8] = assay: Cytotoxicity against human MCF7 cells assessed as reduction in cell growth incubated for 5 days by MTT assay; type: functional, cell-based; conditions: MCF7, 120 h
HepG2 [9] = assay: Antiproliferative activity against human HepG2 cells assessed as reduction in cell viability incubated for 48 hrs by MTT assay; type: functional, cell-based; conditions: HepG2, 48 h
MCF7 [10] = assay: Cytotoxicity against human MCF7 cells assessed as inhibition of cell growth measured after 24 hrs by MTT assay; type: functional, cell-based; conditions: MCF7, 24 h
T47D = assay: Anticancer activity against human T47D cells assessed as cell growth inhibition; type: functional, cell-based
MCF7 [11] = assay: Growth inhibition of human MCF7 cells incubated for 48 hrs by SRB assay; type: functional
K562 = assay: Cytotoxicity against human K562 cells assessed as reduction in cell growth by MTT assay; type: functional, cell-based
MDA-MB-231 [12] = assay: Antiproliferative activity against human MDA-MB-231 cells assessed as reduction in cell viability measured after 72 hrs under hypoxia condition by MTT assay; type: functional, cell-based; conditions: MDA-MB-231, 72 h
MDA-MB-231 [13] = assay: Antiproliferative activity against human MDA-MB-231 cells assessed as reduction in cell viability measured after 72 hrs under normoxia condition by MTT assay; conditions: MDA-MB-231, 72 h
MCF7 [14] = assay: Anticancer activity against human MCF7 cells assessed as cell growth inhibition by MTT assay; type: functional, cell-based
MCF7 [15] = assay: Antiproliferative activity against human MCF7 cells assessed as reduction in cell viability incubated for 72 hrs by MTT assay; type: functional, cell-based; conditions: MCF7, 72 h
HepG2 [16] = assay: Cytotoxicity against human HepG2 cells assessed as reduction in cell viability; type: functional, cell-based
MCF7 [17] = assay: Antiproliferative activity against human MCF7 cells assessed as cell growth inhibition; type: functional, cell-based

Sequence of ALK tyrosine kinase receptor (Q9UM73 19-1620 L1196M limits assumed): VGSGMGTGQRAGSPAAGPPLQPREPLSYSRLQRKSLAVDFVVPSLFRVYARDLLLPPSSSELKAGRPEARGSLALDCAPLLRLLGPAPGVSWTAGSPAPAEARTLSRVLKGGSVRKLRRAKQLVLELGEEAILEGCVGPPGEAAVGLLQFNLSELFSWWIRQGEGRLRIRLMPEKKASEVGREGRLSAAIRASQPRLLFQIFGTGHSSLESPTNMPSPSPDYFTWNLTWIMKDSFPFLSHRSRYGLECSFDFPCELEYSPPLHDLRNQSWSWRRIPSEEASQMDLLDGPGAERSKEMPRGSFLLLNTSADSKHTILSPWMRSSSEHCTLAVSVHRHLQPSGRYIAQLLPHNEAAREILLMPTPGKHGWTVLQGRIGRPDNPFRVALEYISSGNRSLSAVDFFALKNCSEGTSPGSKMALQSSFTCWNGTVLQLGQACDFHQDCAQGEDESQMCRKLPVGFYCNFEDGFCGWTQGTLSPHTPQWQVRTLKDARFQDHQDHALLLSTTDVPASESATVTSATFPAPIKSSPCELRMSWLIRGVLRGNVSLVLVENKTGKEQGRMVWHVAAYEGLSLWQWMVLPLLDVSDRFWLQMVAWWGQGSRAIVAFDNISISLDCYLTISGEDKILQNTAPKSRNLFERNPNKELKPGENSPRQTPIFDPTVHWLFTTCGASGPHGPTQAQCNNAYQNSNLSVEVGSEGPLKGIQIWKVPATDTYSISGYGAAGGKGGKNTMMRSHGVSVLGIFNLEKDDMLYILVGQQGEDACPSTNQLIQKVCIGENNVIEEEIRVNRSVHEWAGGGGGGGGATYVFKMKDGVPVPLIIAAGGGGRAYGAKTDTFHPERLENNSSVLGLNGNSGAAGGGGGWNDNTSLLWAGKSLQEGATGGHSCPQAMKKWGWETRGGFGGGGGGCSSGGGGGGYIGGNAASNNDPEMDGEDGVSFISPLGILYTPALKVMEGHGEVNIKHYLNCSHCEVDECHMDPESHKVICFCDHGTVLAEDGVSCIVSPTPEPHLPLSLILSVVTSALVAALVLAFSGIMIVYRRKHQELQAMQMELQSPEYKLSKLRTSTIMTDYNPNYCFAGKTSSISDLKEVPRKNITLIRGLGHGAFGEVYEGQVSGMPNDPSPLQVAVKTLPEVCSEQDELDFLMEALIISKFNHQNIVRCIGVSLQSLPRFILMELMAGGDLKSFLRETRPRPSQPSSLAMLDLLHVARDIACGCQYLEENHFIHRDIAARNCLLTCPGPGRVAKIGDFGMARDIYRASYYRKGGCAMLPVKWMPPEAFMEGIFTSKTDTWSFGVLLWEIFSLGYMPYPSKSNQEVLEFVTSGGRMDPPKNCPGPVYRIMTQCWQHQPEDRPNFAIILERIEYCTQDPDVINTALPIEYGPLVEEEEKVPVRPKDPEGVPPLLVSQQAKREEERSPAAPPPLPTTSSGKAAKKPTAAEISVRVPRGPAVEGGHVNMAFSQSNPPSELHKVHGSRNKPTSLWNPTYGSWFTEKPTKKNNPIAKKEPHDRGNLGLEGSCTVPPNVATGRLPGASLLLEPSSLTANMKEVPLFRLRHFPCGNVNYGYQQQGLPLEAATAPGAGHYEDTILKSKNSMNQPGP

- IC50 [1]: 0.45 µM
SMILES: COc1ccc2cc(-c3nc4ccc(OC)cc4s3)c(=O)oc2c1

- IC50 (MCF7 [3]): 0.032 µM
SMILES: Cc1c(Cc2ccccc2)c(=O)oc2cc(OS(N)(=O)=O)ccc12

- IC50 (MCF7-DOX): 20.1 µM
- IC50 (HepG2 [4]): 26.1 µM
- IC50 (A549): 28.7 µM
- IC50 (HeLa): 25.5 µM
- IC50 (DU-145): 33.4 µM
- IC50 (SK-OV-3): 35.3 µM
- IC50 (MCF7 [5]): 29.2 µM
SMILES: CO/N=C1\C(=O)N(CCOCCOCCOCCn2cc(COc3ccc4c(C)cc(=O)oc4c3)nn2)c2ccc(F)cc21

- IC50 (MCF7 [3]): 0.008 µM
SMILES: CCCCCCc1c(C)c2ccc(OS(N)(=O)=O)cc2oc1=O

- IC50 (MCF7 [6]): 10.5 µM
SMILES: C/C(=N\Nc1nc(C)c(/N=N/c2ccc(Cl)cc2)s1)c1cc2cc(/N=N/c3ccccc3)ccc2oc1=O

- IC50 (BT-20): 6.4 µg/mL (≈ 11 µM)
SMILES: Nn1c(Cc2ccccc2Br)nn(CC(=O)NNC(=O)c2cc3cc(Cl)cc(Cl)c3oc2=O)c1=O

- IC50 (HepG2 [9]): 5.03 µM
SMILES: C/C(=N\NC1=NCC(=O)S1)c1ccc(NS(=O)(=O)c2ccc3oc(=O)ccc3c2)cc1

- IC50 (T47D): 2.32 µM
- GI50 (MCF7 [11]): 18.9 µg/mL (≈ 46.8 µM)
SMILES: O=C(/C=C/c1ccccc1OCCN1CCCCC1)c1cc2ccccc2oc1=O

- IC50 (MDA-MB-231 [12]): 0.6 µM
- IC50 (MDA-MB-231 [13]): 1.07 µM
SMILES: COc1cccc2c1C(=O)c1c(O)c3c(c(O)c1C2=O)C[C@@](O)(C(=O)CO)C[C@@H]3O[C@H]1C[C@H](N)[C@H](O)[C@H](C)O1 [DOXORUBICIN]

- IC50 (MCF7 [14]): 8 µM
SMILES: CCN(CC)c1ccc2oc(=O)c(-c3csc(-n4nc(-c5ccccc5)cc4N)n3)cc2c1

- IC50 (MCF7 [15]): 20.9 µg/mL (≈ 43.1 µM)
SMILES: COc1ccc(/C=C/C(=N/O)c2ccc(NC(=O)COc3ccc4c(C)cc(=O)oc4c3)cc2)cc1

- IC50 (MCF7 [17]): 49 µM
SMILES: O=C1CCn2cc(nn2)CCOc2ccccc2C(C(=O)c2cc3ccccc3oc2=O)N1 (centres undefined)

- IC50 (MCF7 [6]): 5.1 µM
SMILES: CNC(=O)c1cc(Oc2ccc(NC(=O)Nc3ccc(Cl)c(C(F)(F)F)c3)cc2)ccn1 [SORAFENIB]

Second part, the compound before the results:

SMILES: O=c1oc2ccccc2cc1-c1csc(N/N=C/c2cc([N+](=O)[O-])ccc2Cl)n1
- IC50 [2]: 1.96 µM

SMILES: CCCCCCCCOc1ccc2c(C)c(/C=C/c3cc(OC)ccc3OC)c(=O)oc2c1
- IC50 (SW480): 6.92 µM

SMILES: O=C(Cc1cc(=O)oc2cc(O)ccc12)NCCCCCCCCNc1c2c(nc3ccccc13)CCCC2
- IC50 (4T1): 7 µM

SMILES: COc1ccccc1-c1cn(Cc2cc(=O)oc3cc(O)c(O)cc23)nn1
- IC50 (Caco-2): 9.7 µM

SMILES: COc1cc(/C=C2/SC(=O)N(CCCOc3ccc4c(C)cc(=O)oc4c3)C2=O)cc(OC)c1O
- IC50 (MCF7 [7]): 12.1 µg/mL (≈ 24.4 µM)

SMILES: Cn1cc(C(C)(c2cc3ccccc3oc2=O)c2cn(C)c3ccccc23)c2ccccc21
- IC50 (HOS): 12.2 µM

SMILES: CC(c1cc2ccccc2oc1=O)(c1c[nH]c2ccccc12)c1c[nH]c2ccccc12
- IC50 (MCF7 [8]): 19.8 µM
- IC50 (HOS): 20.8 µM

SMILES: COc1ccc(-c2cc(-c3cc4ccccc4oc3=O)nc(NC(C)=O)c2C#N)cc1
- IC50 (MCF7 [10]): 1.1 µM

SMILES: Cc1c(Cc2ccc(NC(=O)Nc3ccc(F)c(F)c3)nc2)c(=O)oc2cc(O)c(C(C)(C)C)cc12
- IC50 (K562): 1.66 µM

SMILES: COc1ccc(/C=C2/SC(=O)N(CCCOc3ccc4c(C)cc(=O)oc4c3)C2=O)cc1
- IC50 (MCF7 [7]): 15.6 µg/mL (≈ 34.7 µM)

SMILES: CO[C@@H]1O[C@H](Cn2nncc2COc2cc(=O)oc3ccccc23)[C@@H](O)[C@H](O)[C@H]1O
- IC50 (HepG2 [16]): 107 µg/mL (≈ 255 µM)

SMILES: COc1cc(/C=C/c2ccc3ccc(=O)oc3c2)ccc1O
- IC50 (SW480): 5.33 µM
